ChEMBL document CHEMBL4402589, “Discovery of a Potent and Selective NF-κB-Inducing Kinase (NIK) Inhibitor That Has Anti-inflammatory Effects in Vitro and in Vivo” (J Med Chem, 2020)
Active and inactive are the calls of the source. No cut-off for these calls is given here.

Key:
[1] = target: T1, Mitogen-activated protein kinase kinase kinase 14 (Homo sapiens, UniProt Q99558); experiment: Inhibition of recombinant human N-terminal GST-tagged NIK (318 to 947 residues) expressed in baculovirus infected Sf9 cells using ultrapure ATP as substrate measured after 1 hr by ADP-glo assay
[2] = Stability of the compound in pH 1 aqueous solution; assay type: physicochemical; conditions: buffer
[3] = target: Mitogen-activated protein kinase kinase kinase 14 (Mus musculus) (UniProt Q9WUL6); experiment: Inhibition of NIK in NIK/p100 adenoviruses infected C57BL/6 mouse primary hepatocytes assessed as suppression of NIK-mediated proteolysis of p100 to p52 by measuring reduction in p52 level at 5 uM measured after 16 hrs by Western blot analysis
[4] = tested on: Hepatocyte; experiment: Down regulation of NIK expression in NIK/p100 adenoviruses infected C57BL/6 mouse primary hepatocytes at 5 uM measured after 16 hrs by Western blot analysis; assay type: functional, cell-based
[5] = target: T1, Mitogen-activated protein kinase kinase kinase 14; experiment: Inhibition of human NIK using ATP as substrate by kinase-glo assay
[6] = tested on: Mus musculus; experiment: Antiinflammatory activity in CCl4-induced C57BL/6 mouse model of liver injury assessed as reduction in immune cell infiltration in liver at 25 mg/kg, po administered 30 mins prior to CCl4 addition followed by compound redosing at 3 hrs interval for 9 hrs and measured 12 hrs […] by F4/80/DAPI staining based immunofluorescence assay; assay type: functional, organism-based

T1 sequence (Q99558 whole entry, the tested form may be a part): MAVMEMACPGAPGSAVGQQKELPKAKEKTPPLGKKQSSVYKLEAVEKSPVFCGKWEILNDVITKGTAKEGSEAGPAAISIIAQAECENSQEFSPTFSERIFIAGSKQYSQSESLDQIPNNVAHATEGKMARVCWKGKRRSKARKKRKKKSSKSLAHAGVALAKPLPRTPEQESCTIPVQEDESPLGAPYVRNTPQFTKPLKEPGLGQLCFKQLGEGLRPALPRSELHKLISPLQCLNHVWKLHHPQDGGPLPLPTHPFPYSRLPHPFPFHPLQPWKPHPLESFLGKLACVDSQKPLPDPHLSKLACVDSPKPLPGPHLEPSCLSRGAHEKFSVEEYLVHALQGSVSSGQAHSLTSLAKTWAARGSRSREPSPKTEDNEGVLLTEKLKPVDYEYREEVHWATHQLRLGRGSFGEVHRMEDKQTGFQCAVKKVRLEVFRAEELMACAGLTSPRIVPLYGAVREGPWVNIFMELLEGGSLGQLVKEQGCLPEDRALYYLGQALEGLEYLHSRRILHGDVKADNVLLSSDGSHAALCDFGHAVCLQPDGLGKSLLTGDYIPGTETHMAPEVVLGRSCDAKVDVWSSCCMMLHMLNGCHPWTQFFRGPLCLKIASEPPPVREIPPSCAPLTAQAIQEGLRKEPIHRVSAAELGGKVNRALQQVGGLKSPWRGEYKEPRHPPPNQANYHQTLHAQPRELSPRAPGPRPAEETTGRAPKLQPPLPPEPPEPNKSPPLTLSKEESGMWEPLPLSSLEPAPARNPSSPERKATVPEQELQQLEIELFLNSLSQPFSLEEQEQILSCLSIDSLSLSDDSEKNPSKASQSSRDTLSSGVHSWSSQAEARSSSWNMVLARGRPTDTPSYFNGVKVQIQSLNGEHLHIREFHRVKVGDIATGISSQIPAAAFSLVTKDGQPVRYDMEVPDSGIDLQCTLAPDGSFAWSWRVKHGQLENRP
Mitogen-activated protein kinase kinase kinase 14 (Mus musculus), sequence (Q9WUL6 whole entry): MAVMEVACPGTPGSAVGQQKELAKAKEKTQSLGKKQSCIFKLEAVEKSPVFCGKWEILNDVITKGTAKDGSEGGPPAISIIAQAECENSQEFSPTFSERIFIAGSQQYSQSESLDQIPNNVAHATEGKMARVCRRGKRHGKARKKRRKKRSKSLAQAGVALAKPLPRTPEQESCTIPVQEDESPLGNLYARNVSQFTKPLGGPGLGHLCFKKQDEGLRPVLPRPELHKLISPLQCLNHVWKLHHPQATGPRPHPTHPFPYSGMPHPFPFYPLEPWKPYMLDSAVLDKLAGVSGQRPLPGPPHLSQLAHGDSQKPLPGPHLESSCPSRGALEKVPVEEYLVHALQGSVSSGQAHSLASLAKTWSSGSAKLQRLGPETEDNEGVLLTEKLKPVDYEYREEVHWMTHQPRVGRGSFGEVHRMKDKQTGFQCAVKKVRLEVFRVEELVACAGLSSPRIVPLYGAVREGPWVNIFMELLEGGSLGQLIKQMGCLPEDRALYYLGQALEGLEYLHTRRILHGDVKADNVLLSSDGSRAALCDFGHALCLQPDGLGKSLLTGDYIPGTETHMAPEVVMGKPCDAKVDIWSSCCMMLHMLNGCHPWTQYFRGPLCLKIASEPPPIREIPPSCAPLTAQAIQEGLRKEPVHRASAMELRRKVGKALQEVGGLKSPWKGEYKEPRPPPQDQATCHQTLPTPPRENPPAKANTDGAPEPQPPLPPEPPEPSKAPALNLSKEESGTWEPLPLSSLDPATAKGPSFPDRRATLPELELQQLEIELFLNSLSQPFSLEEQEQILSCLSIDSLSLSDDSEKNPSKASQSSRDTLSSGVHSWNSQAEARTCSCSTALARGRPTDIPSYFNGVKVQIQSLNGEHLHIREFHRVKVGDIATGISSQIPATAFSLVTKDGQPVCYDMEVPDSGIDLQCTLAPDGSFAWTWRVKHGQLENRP

| Structure (SMILES) | IC50 [1] [µM] | other results |
| --- | --- | --- |
| CC(O)(C#Cc1cc(Cl)cc(-c2c[nH]c3cnc(N)nc23)c1)c1nccs1 (centres undefined) | > 10 | – |
| Cc1[nH]c2cnc(N)nc2c1-c1cccc(C#CC(C)(O)c2nccs2)c1 (centres undefined) | 2.2 | – |
| CC(O)(C#Cc1ccc(-n2ccc3cnc(N)nc32)cc1)c1nccs1 (centres undefined) | 3.84 | – |
| Cc1ccc(-n2ccc3cnc(N)nc32)cc1C#CC(C)(O)c1nccs1 (centres undefined) | 11.7 | – |
| CC(O)(C#Cc1cccc(-n2cc(Cl)c3cnc(N)nc32)c1)c1nccs1 (centres undefined) | 2.06 | – |
| Nc1ncc2ccn(-c3ccnc(C#CC4(O)CCNCC4)c3)c2n1 | > 10 | – |
| CC(O)(C#Cc1cccc(-c2c[nH]c3cnc(N)nc23)c1F)c1nccs1 (centres undefined) | 10.9 | – |
| COc1cccc(C(C)(O)C#Cc2cccc(-c3c[nH]c4cnc(N)nc34)c2)n1 (centres undefined) | > 10 | – |
| C[C@](O)(C#Cc1ccc(F)c(-c2c[nH]c3cnc(N)nc23)c1)c1nccs1 | 2.23 | – |
| CC(O)(C#Cc1cc(-n2ccc3cnc(N)nc32)ccn1)C(=O)N1CCCC1 (centres undefined) | 6.16 | – |
| CN(C)C(=O)c1ccc(-n2ccc3cnc(N)nc32)cc1C#CC(C)(O)c1nccs1 (centres undefined) | > 10 | – |

Compounds with a lower IC50 [1], results first:

| IC50 [1] [µM] | Structure (SMILES) | other results |
| --- | --- | --- |
| 0.234 | Nc1ncc2ccn(-c3ccnc(C#CC4(O)CCCC4)c3)c2n1 | – |
| 1.86 | CC(O)(C#Cc1cncc(-n2ccc3cnc(N)nc32)c1)c1nccs1 (centres undefined) | – |
| 0.41 | CN1CCC(O)(C#Cc2cccc(-c3c[nH]c4cnc(N)nc34)c2)C1=O (centres undefined) | – |
| 0.204 | CC(O)(C#Cc1cc(-n2ccc3cnc(N)nc32)ccc1F)c1nccs1 (centres undefined) | – |
| 1.75 | COc1ccc(-n2ccc3cnc(N)nc32)cc1C#CC(C)(O)c1nccs1 (centres undefined) | – |
| 0.0855 | CC(O)(C#Cc1ccc(F)c(-c2c[nH]c3cnc(N)nc23)c1)c1nccs1 (centres undefined) | Stability [2]: Stable |
| 0.19 | CCc1nc(N)nc2c1ccn2-c1ccnc(C#CC2(O)CCN(C)C2=O)c1 (centres undefined) | – |
| 0.0151 | C[C@@](O)(C#Cc1ccc2c(c1)N(c1nc(N)ncc1Cl)CC2)c1nccs1 | inhibition [3]: Active; Activity [4]: inactive; IC50 [5]: 0.0042 µM; Activity [6]: Active |
| 0.475 | Nc1ncc2[nH]cc(-c3cccc(C#CC4(O)CCCC4)c3)c2n1 | – |
| 0.12 | COc1ccc(C#CC(C)(O)c2nccs2)cc1-c1c[nH]c2cnc(N)nc12 (centres undefined) | – |
| 0.0873 | CC(O)(C#Cc1cc(-n2ccc3cnc(N)nc32)c(F)cn1)c1nccs1 (centres undefined) | – |
| 0.12 | Cc1cc(C(C)(O)C#Cc2cc(-n3ccc4cnc(N)nc43)ccn2)no1 (centres undefined) | – |
| 0.0852 | Cc1nc(N)nc2c1ccn2-c1ccnc(C#CC2(O)CCN(C)C2=O)c1 (centres undefined) | – |
| 0.72 | CC(C)(O)C#Cc1cccc(-c2c[nH]c3cnc(N)nc23)c1 | – |
| 0.0224 | CC(O)(C#Cc1cc(-n2ccc3cnc(N)nc32)ccn1)c1nccs1 (centres undefined) | Stability [2]: Unstable |
| 0.218 | CC(O)(C#Cc1cccc(-c2c[nH]c3cnc(N)nc23)c1)c1nccs1 (centres undefined) | – |
| 0.335 | Cc1ccc(C#CC(C)(O)c2nccs2)cc1-n1ccc2cnc(N)nc21 (centres undefined) | – |
